Source: US20050176938A1, “Anhydrate/hydrate of an erythromycin derivative and processes for preparing said anhydrate/hydrate” (Chugai Seiyaku Kabushiki Kaisha, priority 2002, published 2005)
Counter-ions that a name gives are not always drawn.

How the values were obtained:
Format in all cases: physicochemical
[1] = Accelerated testing (stability) of Crystal form D anhydrate and X-hydrate at 40° C. and 60° C. for 1 month, degradants by HPLC; settings: for Percent Degradants: X-hydrate at about 75% RH
Description: Three lots of Crystal form D anhydrate prepared according to the procedure described in Example 2 were stored and dried under reduced pressure in a desiccator containing silica gel. After drying under reduced pressure, the desiccator was charged with air conditioned at a relative humidity of 0% RH to perform accelerated testing of Crystal form D anhydrate at 40° C. for 1 month and at 60° C. for 1 month. Similarly, Crystal form D was stored in a desiccator conditioned at a relative humidity of about 75% RH by an aqueous saturated sodium chloride solution to perform accelerated testing of Crystal form D X-hydrate at 40° C. for 1 month and at 60° C. for 1 month. Before and after accelerated testing, the crystal form was confirmed to be Crystal form D anhydrate or Crystal form D X-hydrate by powder X-ray diffraction spectra.
(§1) The resulting samples were tested for purity by HPLC, and the peak area of each sample was measured by automatic analysis to determine the product percentage by the area percentage method according to the equation below. The HPLC column used was YMC ODS AM303 (4.6×250 mm) with a mobile phase consisting of a solution of acetonitrile: water=1:1 containing PICB-8 (Low UV) reagent, and a UV spectrometer (260 nm) and a PDA (200-400 nm) were used as detectors on 25 μL of each sample solution prepared by dissolving about 20 mg of each sample in a solution of acetonitrile:water=1:1 to a volume of exactly 25 mL.
(§2) Degradants percentage (%)=(degradants peak area×100)/(total of peak areas excluding peaks derived from fumaric acid and control solution)

[2] = Residual solvent level (ethyl acetate) by gas chromatography; settings: for Residual solvent level: anhydrate before, X-hydrate after conditioning
Description: The residual solvent level described above can be determined by a known method such as gas chromatography. Gas chromatography is described in detail at B98-B114 of the Practical Guide of the 14th revision of Pharmacopoeia of Japan (published by Hirokawa Publishing Co., 2001) or the like. The measurement error by gas chromatography is normally within about ±1%.
The following examples further illustrate the present invention without, however, limiting the invention thereto. In the following examples, NMR spectra were measured by using a nuclear magnetic resonance spectrometer JNM-ECP500SS (made by JEOL) and only characteristic peaks were shown. Powder X-ray diffraction spectra were measured by using a powder X-ray diffractometer RINT-1100 (made by Rigaku). Residual solvent levels were measured by using a gas chromatograph GC-17A (made by Shimadzu) within an error of about ±1%. The staring material Dihydroxy compound described below (compound 1) can be prepared according to the process described in JPA 1997-100241 or modifications thereof.
Crystal form D anhydrate prepared according to Example 2 and Crystal form D X-hydrate prepared by conditioning said anhydrate according to Example 3 (1) or (2) using an air-circulating dryer (made by Nippon Kansoki), a vibro-fluidized bed dryer VUA-10DJ (made by Chuo Kakohki) or a fluidized bed granulator New Marumerizer NQ-160 (made by Fuji Paudal) were assayed for their residual solvent levels (ethyl acetate) by gas chromatography. Before and after conditioning, the crystal form was confirmed by powder X-ray diffraction spectra to have been transferred from Crystal form D anhydrate into Crystal form D X-hydrate.

[3] = Accelerated testing with oxygen at 40° C. for 2 weeks and 1 month, degradants by HPLC; settings: for Percent Degradants: Oxygen replacement, X-hydrate 75% RH
Description: as §1, §2
In the same manner as described in (1) above, Crystal form D was stored and dried under reduced pressure in a desiccator containing silica gel. After drying under reduced pressure, the air in the desiccator was replaced with high-purity oxygen conditioned at a relative humidity of 0% RH to perform accelerated testing of Crystal form D anhydrate at 40° C. for 2 weeks and for 1 month. Similarly, Crystal form D was stored in a desiccator conditioned at a relative humidity of about 75% RH by an aqueous saturated sodium chloride solution and the air in the desiccator was replaced with high-purity oxygen conditioned at a relative humidity of 75% RH to perform accelerated testing of Crystal form D X-hydrate at 40° C. for 2 weeks and for 1 month. The resulting samples were analyzed as described in (1) above. Before and after accelerated testing, the crystal form was confirmed to be kept Crystal form D anhydrate or Crystal form D X-hydrate under each conditions by powder X-ray diffraction spectra.

CC[C@H]1OC(=O)[C@H](C)[C@@H](O[C@H]2C[C@@](C)(OC)[C@@H](O)[C@H](C)O2)[C@H](C)[C@@H](O[C@@H]2O[C@H](C)C[C@H](N(C)C(C)C)[C@H]2O)[C@@]2(C)CC(C)=C(O2)[C@H](C)C(=O)[C@]1(C)OC [Crystal form D X-hydrate, [2S, 4R, 5R, 8R, 9S, 10S, 11R, 12R]-9-[(2,6-dideoxy-3-C-methyl-3-O-methyl-α-L-ribo-hexopyranosyl)oxy]-5-ethyl-4-methoxy-2,4,8,10,12,14-hexamethyl-11-[[3,4,6-trideoxy-3-(isopropylmethylamino)-β-D-xylo-hexopyranosyl]oxy]-6,15-dioxabicyclo[10.2.1]pentadec-14 (1)-ene-3,7-dione (E)-2-butenedioic acid salt (2:1)]
stability compared between the crystal forms ([1]; 40° C. and 60° C., all the lots): more stable than Crystal form D anhydrate | Percent Degradants ([1]; 40° C., Lot 1, anhydrate at 0% RH, listed as X-hydrate): 0.17% | Percent Degradants ([1]; 40° C., Lot 2, anhydrate at 0% RH, listed as X-hydrate): 0.42% | Percent Degradants ([1]; 40° C., Lot 3, anhydrate at 0% RH, listed as X-hydrate): 0.22% | Percent Degradants ([1]; 60° C., Lot 1, anhydrate at 0% RH, listed as X-hydrate): 0.90% | Percent Degradants ([1]; 60° C., Lot 2, anhydrate at 0% RH, listed as X-hydrate): 0.63% | Percent Degradants ([1]; 60° C., Lot 3, anhydrate at 0% RH, listed as X-hydrate): 1.53% | Residual solvent level ([2]; Lot A, Air-circulating dryer, 20-21° C., 58-63% RH (air) 2 hrs, listed as X-hydrate): 636 ppm | Residual solvent level ([2]; Lot B, Vibro-fluidized bed dryer, 22-28° C., 75 ± 15% RH (nitrogen gas) 4 hrs, listed as X-hydrate): 446 ppm | Residual solvent level ([2]; Lot C, Fluidized bed granulator, 24-29° C., 75 ± 10% RH (air) 4 hrs, listed as X-hydrate): 424 ppm | Residual solvent level ([2]; Lot D, Vibro-fluidized bed dryer, 19-26° C., 70-71% RH (nitrogen gas) 4 hrs, listed as X-hydrate): 424 ppm | Residual solvent level ([2]; Lot E, Air-circulating dryer, 19-28° C., 41-71% RH (air) 72 hrs, listed as X-hydrate): 251 ppm | residual solvent level compared between the crystal forms ([2]; all the lots): lower | Percent Degradants ([3]; 1 month, Lot 1, anhydrate 0% RH, listed as X-hydrate): 0.66% | Percent Degradants ([3]; 1 month, Lot 2, anhydrate 0% RH, listed as X-hydrate): 0.72% | Percent Degradants ([3]; 1 month, Lot 3, anhydrate 0% RH, listed as X-hydrate): 0.93% | Percent Degradants ([3]; 2 weeks, Lot 1, anhydrate 0% RH, listed as X-hydrate): 0.17% | Percent Degradants ([3]; 2 weeks, Lot 2, anhydrate 0% RH, listed as X-hydrate): 0.05% | Percent Degradants ([3]; 2 weeks, Lot 3, anhydrate 0% RH, listed as X-hydrate): 0.18% | stability compared between the crystal forms ([3]; oxygen replacement, 2 weeks and 1 month): more stable than Crystal form D anhydrate

CC[C@H]1OC(=O)[C@H](C)[C@@H](O[C@H]2C[C@@](C)(OC)[C@@H](O)[C@H](C)O2)[C@H](C)[C@@H](O[C@@H]2O[C@H](C)C[C@H](N(C)C(C)C)[C@H]2O)[C@@]2(C)CC(C)=C(O2)[C@H](C)C(=O)[C@]1(C)OC [Crystal form D anhydrate, [2S, 4R, 5R, 8R, 9S, 10S, 11R, 12R]-9-[(2,6-dideoxy-3-C-methyl-3-O-methyl-α-L-ribo-hexopyranosyl)oxy]-5-ethyl-4-methoxy-2,4,8,10,12,14-hexamethyl-11-[[3,4,6-trideoxy-3-(isopropylmethylamino)-β-D-xylo-hexopyranosyl]oxy]-6,15-dioxabicyclo[10.2.1]pentadec-14(1)-ene-3,7-dione (E)-2-butenedioic acid salt (2:1)]
Percent Degradants ([1]; 40° C., Lot 1, anhydrate at 0% RH, listed as Anhydrate): 1.01% | Percent Degradants ([1]; 40° C., Lot 2, anhydrate at 0% RH, listed as Anhydrate): 1.38% | Percent Degradants ([1]; 40° C., Lot 3, anhydrate at 0% RH, listed as Anhydrate): 1.41% | Percent Degradants ([1]; 60° C., Lot 1, anhydrate at 0% RH, listed as Anhydrate): 2.66% | Percent Degradants ([1]; 60° C., Lot 2, anhydrate at 0% RH, listed as Anhydrate): 2.52% | Percent Degradants ([1]; 60° C., Lot 3, anhydrate at 0% RH, listed as Anhydrate): 3.05% | Residual solvent level ([2]; Lot A, Air-circulating dryer, 20-21° C., 58-63% RH (air) 2 hrs, listed as Anhydrate): 697 ppm | Residual solvent level ([2]; Lot B, Vibro-fluidized bed dryer, 22-28° C., 75 ± 15% RH (nitrogen gas) 4 hrs, listed as Anhydrate): 616 ppm | Residual solvent level ([2]; Lot C, Fluidized bed granulator, 24-29° C., 75 ± 10% RH (air) 4 hrs, listed as Anhydrate): 750 ppm | Residual solvent level ([2]; Lot D, Vibro-fluidized bed dryer, 19-26° C., 70-71% RH (nitrogen gas) 4 hrs, listed as Anhydrate): 875 ppm | Residual solvent level ([2]; Lot E, Air-circulating dryer, 19-28° C., 41-71% RH (air) 72 hrs, listed as Anhydrate): 663 ppm | Percent Degradants ([3]; 1 month, Lot 1, anhydrate 0% RH, listed as Anhydrate): 3.12% | Percent Degradants ([3]; 1 month, Lot 2, anhydrate 0% RH, listed as Anhydrate): 3.39% | Percent Degradants ([3]; 1 month, Lot 3, anhydrate 0% RH, listed as Anhydrate): 3.96% | Percent Degradants ([3]; 2 weeks, Lot 1, anhydrate 0% RH, listed as Anhydrate): 1.01% | Percent Degradants ([3]; 2 weeks, Lot 2, anhydrate 0% RH, listed as Anhydrate): 1.00% | Percent Degradants ([3]; 2 weeks, Lot 3, anhydrate 0% RH, listed as Anhydrate): 1.32%
